Measured values: patent US11932839B2, “Microengineered tissue barrier system” (Georgia Tech Research Corporation, priority 2019, dated 2024)

Tested on: human astrocytes (HA)
Assay: LCN2 expression (qRT-PCR) in human astrocytes stimulated with IL-1β
Type: cell-based
Details: 1 ng/mL or 10 ng/mL IL-1β, 20 h
Procedure: In order to compare the structure and function of human astrocytes (HA) in 2D and 3D cultures, HAs were seeded at a density of 1×10^6 cells/mL in Matrigel (Growth factor-reduced; Corning, NY, USA) coated 24-wells and in 3D Matrigel (5 mg/mL). After 1 day of culture, cells were stimulated with 1 ng/mL or 10 ng/mL of recombinant human interleukin-1-beta (IL-1β; Gibco, Grand Island, NY, USA) and incubated for another 20 h for analysis.
The gene expression level of the reactive gliosis marker in 2D or 3D cultured human astrocytes (HA) was confirmed through qRT-PCR analysis. To analyze glial reactivity of HA in 2D and 3D culture system (n=4), standard qRT-PCR was performed with a StepOnePlus Real-Time PCR system (Applied Biosystems) using TaqMan Fast Universal PCR Master Mix (Applied Biosystems). The target genes were assessed using commercially available primers, and the primers used in the experiment are shown in Table 2 below.

With “IL-1β: recombinant human interleukin-1-beta, an inflammatory cytokine” the “expression level of LCN2” value (HA inside 3D Matrigel, FIG. 41) was “dose-dependently controlled” and the “expression level of LCN2” value (HA on 2D Matrigel-coated surface, FIG. 40) was “dose-dependently controlled”.
